According to publication PMC4088988 (Bioorganic & medicinal chemistry, 2013):
“Also recorded” adds a separate entry of the source.

Experiments:
[1] = tested on: glucocorticoid response element (GRE); assay: Transactivation assay, GRE-luciferase reporter in HEK-293 cells; assay type: cell-based; conditions: HEK-293 GRE-luciferase, 0.01 to 100 μg/ml, 6 h
[2] = target: T1, GR (Homo sapiens, UniProt P04150); assay: GR Nuclear Translocation PathHunter assay; assay type: cell-based; conditions: for Rank GR translocation: rank among tested compounds; for GR translocation activity: Fig. 3
T1 sequence (P04150 1-777): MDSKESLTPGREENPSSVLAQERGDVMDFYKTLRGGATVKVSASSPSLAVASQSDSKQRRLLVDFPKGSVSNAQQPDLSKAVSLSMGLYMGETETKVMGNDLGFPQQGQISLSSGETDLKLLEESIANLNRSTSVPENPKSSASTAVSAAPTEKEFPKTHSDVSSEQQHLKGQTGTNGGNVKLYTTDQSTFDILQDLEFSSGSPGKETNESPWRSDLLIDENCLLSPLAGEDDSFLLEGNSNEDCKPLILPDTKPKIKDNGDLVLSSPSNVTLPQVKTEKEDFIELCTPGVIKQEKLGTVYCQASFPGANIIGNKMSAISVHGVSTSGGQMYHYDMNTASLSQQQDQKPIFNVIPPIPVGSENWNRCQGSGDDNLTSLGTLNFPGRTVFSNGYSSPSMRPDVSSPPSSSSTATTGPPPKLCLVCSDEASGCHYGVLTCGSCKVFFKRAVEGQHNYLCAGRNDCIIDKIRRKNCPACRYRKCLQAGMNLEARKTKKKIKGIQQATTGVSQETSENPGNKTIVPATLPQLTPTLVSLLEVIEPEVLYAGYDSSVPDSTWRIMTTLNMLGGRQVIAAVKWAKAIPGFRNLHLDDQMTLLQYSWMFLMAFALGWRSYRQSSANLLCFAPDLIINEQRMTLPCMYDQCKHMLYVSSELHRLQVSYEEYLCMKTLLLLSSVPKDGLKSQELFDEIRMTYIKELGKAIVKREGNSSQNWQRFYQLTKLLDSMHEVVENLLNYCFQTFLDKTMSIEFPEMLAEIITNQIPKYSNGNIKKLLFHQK

[3] = tested on: glucocorticoid receptor (GR); conditions: cited from earlier work
[4] = tested on: mineralocorticoid receptor (MR); conditions: cited from earlier work
[5] = tested on: NF-κB; assay type: cell-based; conditions: C2C12 myoblasts and myotubes, Fig. 2/3
[6] = Pharmacokinetics in CD1 mice, IV and PO; assay type: in vivo; conditions: for AUC0, total, unbound / Cmax, total, unbound: Table 4
[7] = Pharmacokinetics in Sprague–Dawley rats, IV and PO; assay type: in vivo
[8] = Pharmacokinetics in beagle dogs, IV and PO; assay type: in vivo
[9] = Metabolic stability in rat liver microsomes; assay type: in vitro ADME; conditions: 60 min, NADPH
[10] = tested on: CYP1A2; assay: CYP1A2 induction in human hepatocytes; assay type: in vitro ADME; conditions: three human hepatocyte donors, 1, 10, 100 μM, relative to omeprazole
[11] = tested on: CYP3A4; assay: CYP3A4 induction in human hepatocytes; assay type: in vitro ADME; conditions: three human hepatocyte donors, 1, 10, 100 μM, % of positive control rifampin
[12] = Ames test; conditions: Positive/negative
[13] = Micronucleus test; conditions: Positive/negative
[14] = Metabolite identification in human hepatocytes; assay type: in vitro ADME; conditions: 10 μM, 2 and 4 h
[15] = Metabolite identification in monkey hepatocytes; assay type: in vitro ADME; conditions: 10 μM, 2 and 4 h
[16] = Metabolite identification in dog hepatocytes; assay type: in vitro ADME; conditions: 10 μM, 2 and 4 h
[17] = Metabolite identification in rat hepatocytes; assay type: in vitro ADME; conditions: 10 μM, 2 and 4 h
[18] = single administration, cited from earlier work
[19] = CD1 mice, IV 10 mg/kg, 10 mg/kg

Q: For C[C@]12C=CC(=O)C=C1CC[C@@H]1[C@@H]2C(=O)C[C@@]2(C)[C@H]1CC[C@]2(O)C(=O)CO [Prednisone, reference compound], which “GRE-dependent gene transcription (luciferase)” value [1] is on record?
A: induced luciferase expression

Q: What does the source list for C[C@]12CCC(=O)C=C1CC[C@@H]1C2=CC[C@@]2(C)[C@H]1CC[C@]2(O)C(=O)CO [VBP1]?
A: Rank GR translocation [2]: 6; binding to the GR [3]: relatively high affinity binding; binding to the MR [4]: relatively high affinity binding

Q: With C[C@@H]1C[C@H]2[C@@H]3CCC4=CC(=O)C=C[C@]4(C)C3=CC[C@]2(C)[C@H]1C(=O)CO [VBP6] as the compound, how does the “NF-κB inhibition activity” value [5] read?
A: high activities

Q: What about the “GR translocation activity” value [2] of the same compound?
A: high activities

Q: What about the “Rank GR translocation” value [2] of the same compound?
A: 4

Q: What about the AUC/D ([6]; CD1 mice, IV 10 mg/kg) of the same compound?
A: 345 ng·h/mL

Q: And the AUC/D ([6]; CD1 mice, PO 50 mg/kg, 30% Labrafil)?
A: 440 ng·h/mL

Q: With CC(=O)OCC(=O)[C@H]1[C@H](C)C[C@H]2[C@@H]3CCC4=CC(=O)C=C[C@]4(C)C3=CC[C@@]21C [VBP7] as the compound, how does the “NF-κB inhibition activity” value [5] read?
A: high activities

Q: And the “GR translocation activity” value [2]?
A: high activities

Q: And the “Rank GR translocation” value [2]?
A: 7

Q: With C[C@@H]1C[C@H]2[C@@H]3CCC4=CC(=O)C=C[C@]4(C)C3=CC[C@]2(C)[C@@]1(O)C(=O)CO [VBP15] as the compound, how does the “NF-κB inhibition activity” value [5] read?
A: high activities

Q: What about the “GR translocation activity” value [2] of the same compound?
A: high activities

Q: And the “GRE-dependent gene transcription (luciferase)” value [1]?
A: lack of transactivation properties; also recorded: lacks GRE-mediated transcriptional activity

Q: What about the Clobs [6, 19] of the same compound?
A: 18.8 (IV) mL/min/kg

Q: What about the Vssobs [6, 19] of the same compound?
A: 0.757 (IV) L/kg

Q: What about the “AUC0, total, unbound” value ([6]; Mouse 10 mpk IV) of the same compound?
A: 8842 (IV) h ng/mL

Q: What about the “Cmax, total, unbound” value ([6]; Mouse 10 mpk IV) of the same compound?
A: 11167 (IV) ng/mL

Q: What about the “AUC0, total, unbound” value ([6]; Mouse 50 mpk PO) of the same compound?
A: 32932 (PO) h ng/mL

Q: And the “Cmax, total, unbound” value ([6]; Mouse 50 mpk PO, 50 mg/kg)?
A: 6787 (PO) ng/mL

Q: And the “AUC0, total, unbound” value ([7]; Rat 10 mpk IV)?
A: 8339 (IV) h ng/mL

Q: What about the “AUC0, total, unbound” value ([7]; Rat 50 mpk PO) of the same compound?
A: 19937 (PO) h ng/mL

Q: And the “Cmax, total, unbound” value ([7]; Rat 50 mpk PO, 50 mg/kg)?
A: 2543 (PO) ng/mL

Q: What about the “AUC0, total, unbound” value ([8]; Dog 10 mpk IV) of the same compound?
A: 6791 (IV) h ng/mL

Q: And the “AUC0, total, unbound” value ([8]; Dog 30 mpk PO)?
A: 10844 (PO) h ng/mL

Q: And the “Cmax, total, unbound” value ([8]; Dog 30 mpk PO, 30 mg/kg)?
A: 814 (PO) ng/mL

Q: And the “Stability–microsomes, remaining at 1 h” value [9]?
A: Rat = 35.4%

Q: And the CYP1A2 induction [10]?
A: no induction

Q: And the CYP3A4 induction [11]?
A: 24–42%

Q: What about the Ames test [12] of the same compound?
A: Negative

Q: What about the Micronucleus test [13] of the same compound?
A: Negative

Q: What about the “number of metabolites identified” value [14] of the same compound?
A: Four

Q: What about the “number of metabolites identified” value [15] of the same compound?
A: Four

Q: What about the “number of metabolites identified” value [16] of the same compound?
A: 3

Q: And the “number of metabolites identified” value [17]?
A: 5

Q: For CC(=O)OCC(=O)[C@@]1(O)CC[C@@H]2[C@H]3CCC4=CC(=O)CC[C@]4(C)C3=CC[C@@]21C [anecortave acetate, [2-[(8R,10S,13S,14R,17R)-17-hydroxy-10,13-dimethyl-3-oxo-2,6,7,8,12,14,15,16-octahydro-1H-cyclopenta[a]phenanthren-17-yl]-2-oxo-ethyl] acetate, reference compound], which “reduction in IOP” value ([18]; best dose) is on record?
A: 31%

Q: And the “mean duration of IOP benefit” value [18]?
A: 56 days

Q: And the “binding to the GR” value [3]?
A: relatively high affinity binding

Q: What about the “binding to the MR” value [4] of the same compound?
A: relatively high affinity binding

Q: For C[C@]12C=CC(=O)C=C1CC[C@@H]1[C@@H]2[C@@H](O)C[C@@]2(C)[C@H]1CC[C@]2(O)C(=O)CO [prednisolone, reference compound], which “GRE-dependent gene transcription (luciferase)” value [1] is on record?
A: significant dose-dependent response
